Experimental data as given in patent US9845310B2 (priority 2015, dated 2017).
Values joined by “and” are separate entries in the source; they are usually repeats but may differ in a detail not shown here. Identical values can stand only once. Like-named read-outs stand apart in the source and are kept apart here.

Columns and labels:
heart failure rat model = format: in vivo; conditions: for cardiac contractility as measured by dP/dtmax (derivative of left ventricular pressure): male Lewis rats, heart failure by permanent ligation of left descending coronary artery, ejection fraction <35%, dosed acutely for 30 min
Procedure: Male Lewis rats (Charles River, USA) at 2-3 months of age were used for the study. […] APJ agonists were administered dose dependently acutely for a period of 30 min.

[1] = tested on: naive Sprague Dawley rat hearts; conditions: for left ventricular dP/dtmax (load independent cardiac contractility) / left ventricular dP/dtmin (load independent cardiac relaxation): ex vivo naive Sprague Dawley rat hearts, Langendorff apparatus, as a function of concentration
APJ = APJ (Homo sapiens (Human), UniProt P35414); assay: [35S]GTPγS binding assay on membranes from CHO cells stably expressing human APJ receptor; format: biochemical
[2] = in vivo heart failure (MI) rat, acute administration for 30 min
[3] = ex vivo isolated perfused rat heart, contractility, percent change over vehicle
[4] = ex vivo isolated perfused rat heart, relaxation (lusitropic), percent change over vehicle
[5] = read-out: Activity hAPJ SPA EC50 IP

Sequence of APJ (P35414 whole entry): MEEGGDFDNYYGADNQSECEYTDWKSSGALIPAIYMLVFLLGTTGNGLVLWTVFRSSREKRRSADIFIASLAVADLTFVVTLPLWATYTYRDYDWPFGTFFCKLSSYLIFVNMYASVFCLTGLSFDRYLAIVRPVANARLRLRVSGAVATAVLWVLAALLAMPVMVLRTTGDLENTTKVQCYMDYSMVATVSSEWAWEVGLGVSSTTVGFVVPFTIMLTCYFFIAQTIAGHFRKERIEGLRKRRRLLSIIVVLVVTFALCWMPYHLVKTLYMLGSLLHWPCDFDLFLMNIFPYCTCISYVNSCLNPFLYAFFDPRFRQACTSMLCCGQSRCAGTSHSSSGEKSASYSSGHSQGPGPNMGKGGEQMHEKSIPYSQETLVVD

COc1cccc(OC)c1-n1c(NS(=O)(=O)[C@H](C)[C@@H](C)c2ncc(Cl)cn2)nnc1-c1cccnc1 (racemic) [Example 694.0, (2R,3S)-3-(5-chloropyrimidin-2-yl)-N-(4-(2,6-dimethoxyphenyl)-5-(pyridin-3-yl)-4H-1,2,4-triazol-3-yl)butane-2-sulfonamide or (2S,3R)-3-(5-chloropyrimidin-2-yl)-N-(4-(2,6-dimethoxyphenyl)-5-(pyridin-3-yl)-4H-1,2,4-triazol-3-yl)butane-2-sulfonamide]
MI Rat Model dP/dtmax(%) (heart failure rat model; [2]): 8%
Isolated Heart Assay dP/dtmax(%) [1, 3]: 18.0%
Isolated Heart Assay dP/dtmin(%) [1, 4]: 32.0%

COc1cccc(-c2nnc(NS(=O)(=O)[C@@H](C)[C@H](OC)c3ncc(C)cn3)n2-c2c(OC)cccc2OC)n1 [Example 27.0, (1R,2S)-N-(4-(2,6-dimethoxyphenyl)-5-(6-methoxypyridin-2-yl)-4H-1,2,4-triazol-3-yl)-1-methoxy-1-(5-methylpyrimidin-2-yl)propane-2-sulfonamide]
MI Rat Model dP/dtmax(%) (heart failure rat model; [2]): 20%
cardiac contractility as measured by dP/dtmax (derivative of left ventricular pressure) (heart failure rat model): increase in cardiac contractility
Isolated Heart Assay dP/dtmax(%) [1, 3]: 26%
Isolated Heart Assay dP/dtmin(%) [1, 4]: 20%
left ventricular dP/dtmax (load independent cardiac contractility) [1]: increases load independent cardiac contractility
left ventricular dP/dtmin (load independent cardiac relaxation) [1]: increases load independent cardiac relaxation

COc1cccc(OC)c1-n1c(NS(=O)(=O)[C@@H](C)[C@H](OC)c2ncc(C)cn2)nnc1-c1cncc(C)c1 [Example 203.0, (1R,2S)-N-(4-(2,6-dimethoxyphenyl)-5-(5-methyl-3-pyridinyl)-4H-1,2,4-triazol-3-yl)-1-methoxy-1-(5-methyl-2-pyrimiidnyl)-2-propanesulfonamide]
MI Rat Model dP/dtmax(%) (heart failure rat model; [2]): 12%
Isolated Heart Assay dP/dtmax(%) [1, 3]: No effect
Isolated Heart Assay dP/dtmin(%) [1, 4]: No effect

COc1cccc(OC)c1-n1c(NS(=O)(=O)[C@@H](C)[C@H](OC(C)C)c2ncc(C)cn2)nnc1-c1cncc(C)c1 (stereo in doubt) [Example 93.0, (1R,2S)-N-(4-(2,6-dimethoxyphenyl)-5-(5-methylpyridin-3-yl)-4H-1,2,4-triazol-3-yl)-1-isopropoxy-1-(5-methylpyrimidin-2-yl)propane-2-sulfonamide]
MI Rat Model dP/dtmax(%) (heart failure rat model; [2]): 20%
Isolated Heart Assay dP/dtmax(%) [1, 3]: 19.0%
Isolated Heart Assay dP/dtmin(%) [1, 4]: 27.0%

COc1cccc(OC)c1-n1c(NS(=O)(=O)[C@@H](C)[C@H](O)c2ncc(C)cn2)nnc1-c1cccc(C)n1 [Example 99.0]
MI Rat Model dP/dtmax(%) (heart failure rat model; [2]): 30% and 31%
Isolated Heart Assay dP/dtmax(%) [1, 3]: 18% and 19.7%
Isolated Heart Assay dP/dtmin(%) [1, 4]: 30% and 31%

COc1cccc(OC)c1-n1c(NS(=O)(=O)[C@@H](C)[C@@H](OC(C)C)c2ncc(C)cn2)nnc1-c1cncc(C)c1 (stereo in doubt) [Example 91.0, (1S,2S)-N-(4-(2,6-dimethoxyphenyl)-5-(5-methylpyridin-3-yl)-4H-1,2,4-triazol-3-yl)-1-isopropoxy-1-(5-methylpyrimidin-2-yl)propane-2-sulfonamide]
MI Rat Model dP/dtmax(%) (heart failure rat model; [2]): 25%
Isolated Heart Assay dP/dtmax(%) [1, 3]: 20.0%
Isolated Heart Assay dP/dtmin(%) [1, 4]: 43.0%

COc1cccc(OC)c1-n1c(NS(=O)(=O)[C@@H](C)[C@H](C)c2ncc(C)cn2)nnc1-c1cccnc1 [Example 586.0, (2S,3R)-N-(4-(2,6-dimethoxyphenyl)-5-(3-pyridinyl)-4H-1,2,4-triazol-3-yl)-3-(5-methyl-2-pyrimidinyl)-2-butanesulfonamide]
cardiac contractility as measured by dP/dtmax (derivative of left ventricular pressure) (heart failure rat model): increase in cardiac contractility
Isolated Heart Assay dP/dtmax(%) [1]: 15%
Isolated Heart Assay dP/dtmin(%) [1]: 21%
left ventricular dP/dtmax (load independent cardiac contractility) [1]: increases load independent cardiac contractility
left ventricular dP/dtmin (load independent cardiac relaxation) [1]: increases load independent cardiac relaxation

COc1cccc(OC)c1-n1c(NS(=O)(=O)[C@@H](C)[C@H](C)c2cnc(C)cn2)nnc1-c1cccnc1 [Example 198.0, (2S,3R)-N-(4-(2,6-dimethoxyphenyl)-5-(pyridin-3-yl)-4H-1,2,4-triazol-3-yl)-3-(5-methylpyrazin-2-yl)butane-2-sulfonamide]
MI Rat Model dP/dtmax(%) (heart failure rat model; [2]): 15%
Isolated Heart Assay dP/dtmax(%) [1, 3]: 15.0%
Isolated Heart Assay dP/dtmin(%) [1, 4]: 19.0%

CCO[C@H](c1ncc(C)cn1)[C@H](C)S(=O)(=O)Nc1nnc(-c2cccnc2)n1-c1c(OC)cccc1OC (single isomer, unassigned) [Example 109.0]
cardiac contractility as measured by dP/dtmax (derivative of left ventricular pressure) (heart failure rat model): increase in cardiac contractility
MI Rat Model dP/dtmax(%) (heart failure rat model; rat, in vivo): 20%
Isolated Heart Assay dP/dtmax(%) [1]: 15%
Isolated Heart Assay dP/dtmin(%) [1]: 25%
left ventricular dP/dtmax (load independent cardiac contractility) [1]: increases load independent cardiac contractility
left ventricular dP/dtmin (load independent cardiac relaxation) [1]: increases load independent cardiac relaxation

COc1cccc(OC)c1-n1c(NS(=O)(=O)[C@@H](C)[C@H](OC)c2ncc(-c3ccccc3)cn2)nnc1-c1cncc(C)c1 [Example 428.0, (1R,2S)-N-(4-(2,6-dimethoxyphenyl)-5-(5-methylpyridin-3-yl)-4H-1,2,4-triazol-3-yl)-1-methoxy-1-(5-phenylpyrimidin-2-yl)propane-2-sulfonamide]
EC50 (APJ; Activity hAPJ SPA EC50 IP (μM)): 0.0025 µM

COc1cnc([C@H](O)[C@@H](C)S(=O)(=O)Nc2nnc(-c3cccnc3)n2-c2c(OC)cccc2OC)cn1 (mixture of isomers) [Example 703.0, (1R,2S)-N-(4-(2,6-dimethoxyphenyl)-5-(3-pyridinyl)-4H-1,2,4-triazol-3-yl)-1-hydroxy-1-(5-methoxy-2-pyrazinyl)-2-propanesulfonamide and (1S,2R)-N-(4-(2,6-dimethoxyphenyl)-5-(3-pyridinyl)-4H-1,2,4-triazol-3-yl)-1-hydroxy-1-(5-methoxy-2-pyrazinyl)-2-propanesulfonamide]
EC50 (APJ; Activity hAPJ SPA EC50 IP (μM)): 0.002 µM

COCCO[C@H](c1ncc(C)cn1)[C@H](C)S(=O)(=O)Nc1nnc(-c2cccc(OC)n2)n1-c1c(OC)cccc1OC [Example 695.0, (1R,2S)-N-(4-(2,6-dimethoxyphenyl)-5-(6-methoxypyridin-2-yl)-4H-1,2,4-triazol-3-yl)-1-(2-methoxyethoxy)-1-(5-methylpyrimidin-2-yl)propane-2-sulfonamide]
EC50 (APJ; Activity hAPJ SPA EC50 IP (μM)): 0.00012 µM

COc1ccnc(OC)c1-n1c(NS(=O)(=O)[C@@H](C)[C@H](OC)c2ccc(Cl)cn2)nnc1-c1cccnc1 (single isomer, unassigned) [Example 715.0, (1R,2S,P)-1-(5-chloro-2-pyridinyl)-N-(4-(2,4-dimethoxy-3-pyridinyl)-5-(3-pyridinyl)-4H-1,2,4-triazol-3-yl)-1-methoxy-2-propanesulfonamide or (1R,2S,M)-1-(5-chloro-2-pyridinyl)-N-(4-(2,4-dimethoxy-3-pyridinyl)-5-(3-pyridinyl)-4H-1,2,4-triazol-3-yl)-1-methoxy-2-propanesulfonamide]
EC50 (APJ; Activity hAPJ SPA EC50 IP (μM)): 0.00031 µM

COc1cccc(OC)c1-n1c(NS(=O)(=O)[C@@H](C)[C@H](C)c2ncc(F)c([C@@H]3COCCO3)n2)nnc1-c1cccc(OCC(O)(C(F)(F)F)C(F)(F)F)n1 (single isomer, unassigned) [Example 640.0]
EC50 (APJ; [5]): 0.33 µM

CCO[C@@H](c1cnc(C)cn1)[C@@H](C)S(=O)(=O)Nc1nnc(-c2cccc(OC)n2)n1-c1c(OC)cccc1OC (single isomer, unassigned) [Example 588.0, (1S,2R)-N-(4-(2,6-dimethoxyphenyl)-5-(6-methoxy-2-pyridinyl)-4H-1,2,4-triazol-3-yl)-1-ethoxy-1-(5-methyl-2-pyrazinyl)-2-propanesulfonamide or (1R,2S)-N-(4-(2,6-dimethoxyphenyl)-5-(6-methoxy-2-pyridinyl)-4H-1,2,4-triazol-3-yl)-1-ethoxy-1-(5-methyl-2-pyrazinyl)-2-propanesulfonamide]
EC50 (APJ; [5]): 0.00052 µM

COc1cccc(-c2nnc(NS(=O)(=O)[C@H](C)[C@H](OC(C)C)c3ncc(C)cn3)n2-c2c(OC)cccc2OC)n1 (single isomer, unassigned) [Example 98.0]
EC50 (APJ; Activity hAPJ SPA EC50 IP (μM)): 0.0099 µM

COc1cccc(OC)c1-n1c(NS(=O)(=O)[C@@H](C)[C@H](OC)c2ncnn2C)nnc1-c1cncc(C)c1 (single isomer, unassigned) [Example 782.0, (1R,2S)-N-(4-(2,6-dimethoxyphenyl)-5-(5-methyl-3-pyridinyl)-4H-1,2,4-triazol-3-yl)-1-methoxy-1-(1-methyl-1H-1,2,4-triazol-5-yl)-2-propanesulfonamide or (1S,2R)-N-(4-(2,6-dimethoxyphenyl)-5-(5-methyl-3-pyridinyl)-4H-1,2,4-triazol-3-yl)-1-methoxy-1-(1-methyl-1H-1,2,4-triazol-5-yl)-2-propanesulfonamide]
EC50 (APJ; Activity hAPJ SPA EC50 IP (μM)): 0.028 µM

COc1cccc(-c2nnc(NS(=O)(=O)[C@@H]3CCCO[C@@H]3c3ncc(C)cn3)n2-c2c(OC)cccc2OC)n1 (single isomer, unassigned) [Example 655.0]
EC50 (APJ; [5]): 0.13 µM

COc1cccc(-c2nnc(NS(=O)(=O)C[C@H](O)c3ccc(F)cc3S(C)(=O)=O)n2-c2c(OC)cccc2OC)n1 (mixture of isomers) [Example 267.0, (R)-N-(4-(2,6-dimethoxyphenyl)-5-(6-methoxypyridin-2-yl)-4H-1,2,4-triazol-3-yl)-2-(4-fluoro-2-(methylsulfonyl)phenyl)-2-hydroxyethanesulfonamide and (S)-N-(4-(2,6-dimethoxyphenyl)-5-(6-methoxypyridin-2-yl)-4H-1,2,4-triazol-3-yl)-2-(4-fluoro-2-(methylsulfonyl)phenyl)-2-hydroxyethanesulfonamide]
EC50 (APJ; Activity hAPJ SPA EC50 IP (μM)): 0.00015 µM
